Data set [1] has as its target NR2B (Homo sapiens, UniProt Q05586+Q13224). The data set can be described thus: Functional activity (method not described). Format: cell-based.
In data set [2] the target is T1, NR2B subunit (Rattus norvegicus, UniProt P35439+Q00960).
T1 construct: Membranes were prepared by homogenization of forebrain of male CD rats; from tissue; host or cells: rat forebrain P2 membrane
The data set can be described thus: NR2B binding assay ([3H]-CP-98,113 competition, rat forebrain P2 membrane). Conditions: 5 nM [3H]-CP-98,113, rat forebrain P2 membrane. As to the method:
The activity of the 3,4-dihydroquinolin-2(1H)-one compounds of the present invention, as NR2B antagonists, is determined by their ability to inhibit the binding of NR2B subunit at its receptor sites employing radioactive ligands.
The NR2B antagonist activity of the 3,4-dihydroquinolin-2(1H)-one compounds is evaluated by using the standard assay procedure described in, for example, J. Pharmacol., 331, pp117-126, 1997. […] More specifically, the assay is carried out as follows.
Membranes were prepared by homogenization of forebrain of male CD rats weighing between 170˜190 g by using glass-Teflon homogenizer in 0.32 M sucrose at 4° C. […]
For the saturation assay, receptor saturation was determined by incubating [^3H]-CP-98,113 and 50 μg protein of P2 membrane for 60 minutes at room temperature in a final 100 μl of incubation buffer (50 mM Tris HCl, pH7.4). Total and non-specific bindings (in the presence of 10 μM of unlabeled CP-98,113) were determined in a range of [^3H]-CP-98113 concentrations (0.625 nM to 60 nM). […]
For the competition assay, test compounds were incubated in duplicate with 5 nM [^3H]-CP-98,113 and 50 μg protein of P2 membrane for 60 minutes at room temperature in a final 100 μl of 50 mM Tris HCl buffer (pH7.4). Nonspecific binding was determined by 10 μM of unlabeled CP-98,113 (25 μl). […]

The target in data set [3] is T2, HERG potassium channel (Homo sapiens, UniProt Q12809).
T2 construct: expressed in transfected cells; host or cells: HEK-293
T2 sequence (Q12809 whole entry): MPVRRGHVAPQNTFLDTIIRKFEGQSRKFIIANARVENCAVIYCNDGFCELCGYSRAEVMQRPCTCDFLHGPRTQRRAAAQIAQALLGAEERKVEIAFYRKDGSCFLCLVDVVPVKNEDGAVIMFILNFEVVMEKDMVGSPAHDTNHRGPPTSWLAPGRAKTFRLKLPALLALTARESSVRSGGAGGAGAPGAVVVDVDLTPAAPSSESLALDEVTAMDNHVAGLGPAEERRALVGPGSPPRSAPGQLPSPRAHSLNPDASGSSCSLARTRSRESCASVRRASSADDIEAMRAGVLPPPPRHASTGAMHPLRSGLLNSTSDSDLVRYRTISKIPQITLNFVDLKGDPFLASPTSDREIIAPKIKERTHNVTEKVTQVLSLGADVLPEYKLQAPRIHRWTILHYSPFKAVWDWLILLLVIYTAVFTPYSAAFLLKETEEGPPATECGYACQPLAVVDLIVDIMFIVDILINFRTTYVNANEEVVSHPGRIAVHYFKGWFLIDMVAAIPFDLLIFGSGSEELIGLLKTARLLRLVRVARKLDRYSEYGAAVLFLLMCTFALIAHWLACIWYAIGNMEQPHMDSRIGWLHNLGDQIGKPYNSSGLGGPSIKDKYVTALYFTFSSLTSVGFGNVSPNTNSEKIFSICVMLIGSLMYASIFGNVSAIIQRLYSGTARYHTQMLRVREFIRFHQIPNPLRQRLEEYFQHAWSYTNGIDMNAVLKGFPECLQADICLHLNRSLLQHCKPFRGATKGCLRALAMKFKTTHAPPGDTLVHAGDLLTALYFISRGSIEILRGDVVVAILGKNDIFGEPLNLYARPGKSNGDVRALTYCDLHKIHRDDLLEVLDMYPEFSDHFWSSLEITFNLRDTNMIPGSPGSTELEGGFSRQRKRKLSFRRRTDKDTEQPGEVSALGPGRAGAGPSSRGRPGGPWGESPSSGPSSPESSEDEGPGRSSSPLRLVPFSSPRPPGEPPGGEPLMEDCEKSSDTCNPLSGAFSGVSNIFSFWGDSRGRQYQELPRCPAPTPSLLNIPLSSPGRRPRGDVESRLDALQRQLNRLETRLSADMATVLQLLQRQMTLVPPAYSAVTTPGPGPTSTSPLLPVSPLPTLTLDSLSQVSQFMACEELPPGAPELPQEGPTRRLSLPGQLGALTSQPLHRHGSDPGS
The data set can be described thus: Dofetilide binding assay ([3H]-dofetilide competition, membranes of HEK-293 cells expressing the HERG product).

Where a name gives a salt, the structure may show the parent alone.

T1 sequence (Q00960 27-1482, other chains not shown): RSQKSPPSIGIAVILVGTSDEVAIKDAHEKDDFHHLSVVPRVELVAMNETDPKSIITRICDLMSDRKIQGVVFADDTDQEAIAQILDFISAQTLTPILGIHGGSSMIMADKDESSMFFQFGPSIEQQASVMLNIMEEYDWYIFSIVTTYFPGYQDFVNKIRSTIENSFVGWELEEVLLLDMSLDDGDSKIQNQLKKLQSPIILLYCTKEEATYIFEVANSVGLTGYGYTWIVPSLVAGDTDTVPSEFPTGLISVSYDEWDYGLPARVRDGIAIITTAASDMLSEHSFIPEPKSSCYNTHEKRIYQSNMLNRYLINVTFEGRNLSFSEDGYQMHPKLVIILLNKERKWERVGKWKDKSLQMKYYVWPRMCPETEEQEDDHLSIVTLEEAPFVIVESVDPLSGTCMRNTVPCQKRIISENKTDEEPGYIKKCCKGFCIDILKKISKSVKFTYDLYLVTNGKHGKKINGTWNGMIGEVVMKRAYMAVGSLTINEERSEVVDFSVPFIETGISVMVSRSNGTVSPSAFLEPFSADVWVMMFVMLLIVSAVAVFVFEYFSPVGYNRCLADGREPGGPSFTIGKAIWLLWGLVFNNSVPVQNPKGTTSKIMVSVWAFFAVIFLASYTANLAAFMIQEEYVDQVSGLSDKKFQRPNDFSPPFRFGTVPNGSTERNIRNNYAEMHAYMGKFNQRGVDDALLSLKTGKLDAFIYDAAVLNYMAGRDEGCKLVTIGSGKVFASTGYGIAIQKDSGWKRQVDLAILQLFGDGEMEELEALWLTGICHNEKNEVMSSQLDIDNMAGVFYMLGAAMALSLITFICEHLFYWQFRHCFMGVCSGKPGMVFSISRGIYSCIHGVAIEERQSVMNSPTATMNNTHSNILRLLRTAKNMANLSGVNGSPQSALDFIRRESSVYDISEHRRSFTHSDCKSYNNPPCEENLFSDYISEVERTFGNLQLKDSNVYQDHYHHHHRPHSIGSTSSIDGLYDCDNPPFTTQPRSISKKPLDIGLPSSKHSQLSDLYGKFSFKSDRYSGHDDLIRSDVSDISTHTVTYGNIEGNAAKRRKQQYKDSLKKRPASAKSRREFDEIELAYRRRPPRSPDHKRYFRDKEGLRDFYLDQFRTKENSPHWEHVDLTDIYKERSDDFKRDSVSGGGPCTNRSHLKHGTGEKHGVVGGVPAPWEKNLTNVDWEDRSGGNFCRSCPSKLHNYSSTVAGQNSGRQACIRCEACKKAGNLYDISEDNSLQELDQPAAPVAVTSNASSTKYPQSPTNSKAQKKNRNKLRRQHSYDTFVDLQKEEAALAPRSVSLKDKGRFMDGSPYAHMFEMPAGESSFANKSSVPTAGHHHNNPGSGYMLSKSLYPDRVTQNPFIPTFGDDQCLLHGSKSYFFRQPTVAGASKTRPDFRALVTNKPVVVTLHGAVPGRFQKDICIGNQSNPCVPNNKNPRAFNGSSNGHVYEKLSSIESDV
Sequence of NR2B (Q13224 27-1484, species assumed, other chains not shown): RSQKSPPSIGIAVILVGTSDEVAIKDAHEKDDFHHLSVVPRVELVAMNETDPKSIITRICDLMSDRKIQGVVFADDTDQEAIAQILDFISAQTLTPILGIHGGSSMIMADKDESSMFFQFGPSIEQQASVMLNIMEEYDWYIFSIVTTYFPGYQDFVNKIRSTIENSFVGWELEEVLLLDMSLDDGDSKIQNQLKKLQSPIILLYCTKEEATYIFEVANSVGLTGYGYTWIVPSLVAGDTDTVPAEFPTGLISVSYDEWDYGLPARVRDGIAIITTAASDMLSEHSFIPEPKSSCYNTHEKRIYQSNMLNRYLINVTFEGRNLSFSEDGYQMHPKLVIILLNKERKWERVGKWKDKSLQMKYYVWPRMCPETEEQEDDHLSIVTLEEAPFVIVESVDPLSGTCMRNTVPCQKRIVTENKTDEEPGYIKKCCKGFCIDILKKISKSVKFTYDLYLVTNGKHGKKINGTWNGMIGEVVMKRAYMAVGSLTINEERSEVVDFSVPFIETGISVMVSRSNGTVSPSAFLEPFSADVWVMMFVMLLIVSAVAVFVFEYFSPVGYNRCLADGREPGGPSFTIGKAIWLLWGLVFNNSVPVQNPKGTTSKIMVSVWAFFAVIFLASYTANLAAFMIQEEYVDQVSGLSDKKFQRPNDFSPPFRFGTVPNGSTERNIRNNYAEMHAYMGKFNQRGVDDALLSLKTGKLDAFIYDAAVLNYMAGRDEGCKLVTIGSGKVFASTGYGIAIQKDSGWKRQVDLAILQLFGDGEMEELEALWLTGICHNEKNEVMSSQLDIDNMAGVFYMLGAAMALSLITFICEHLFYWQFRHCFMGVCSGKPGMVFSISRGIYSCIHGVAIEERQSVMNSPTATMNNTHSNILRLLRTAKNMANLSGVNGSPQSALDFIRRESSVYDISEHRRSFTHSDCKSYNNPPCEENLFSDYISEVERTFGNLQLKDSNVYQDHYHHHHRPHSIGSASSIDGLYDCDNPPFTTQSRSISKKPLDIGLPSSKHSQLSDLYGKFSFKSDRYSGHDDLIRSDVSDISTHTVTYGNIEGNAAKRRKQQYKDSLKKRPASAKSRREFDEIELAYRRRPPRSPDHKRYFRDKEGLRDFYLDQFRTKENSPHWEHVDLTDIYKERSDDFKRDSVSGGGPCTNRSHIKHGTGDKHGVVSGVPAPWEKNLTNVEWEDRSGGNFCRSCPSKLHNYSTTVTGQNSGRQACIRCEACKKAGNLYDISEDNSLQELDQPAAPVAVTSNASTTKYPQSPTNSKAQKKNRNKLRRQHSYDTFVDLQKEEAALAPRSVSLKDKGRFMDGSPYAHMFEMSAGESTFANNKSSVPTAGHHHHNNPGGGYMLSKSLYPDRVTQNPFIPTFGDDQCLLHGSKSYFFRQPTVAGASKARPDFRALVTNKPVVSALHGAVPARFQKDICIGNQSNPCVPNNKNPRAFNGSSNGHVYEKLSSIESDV

For orientation: IC50 means the concentration that inhibits the measured activity by half. On to `C[C@H]([C@H](O)c1ccc2c(c1)CCC(=O)N2)N1CCC(O)(c2ccccc2)CC1`, for which the IC50 in data set [1] turned out to be 22.4 nM.
One may read the Ki as a measure of affinity in units of concentration, obtained from inhibition or displacement. `O=C1CCc2cc([C@@H](O)CN3CCC(O)(c4cccc(F)c4)CC3)ccc2N1` showed an IC50 in data set [1] of 11.9 nM. The inhibition constant (Ki) in data set [2] was found to be 3.5 nM; in data set [3] (5 nM [3H]-dofetilide, HERG homogenate of HEK-293 cells), 8.3 µM. For the same compound, the “TI (Defetilide/NR2B)” value in data set [3] (TI = Dofetilide Binding Ki [μM]/NR2B Binding Ki [nM] x 1000) came to 2400.
Usually melting point stands for the temperature, or range, at which the solid turns liquid. Take `CS(=O)(=O)O.O=C1CCc2cc([C@@H](O)CN3CCC(O)(c4cccc(F)c4)CC3)ccc2N1`: the melting point lay within 180 to 182 °C.
On the same count and under the same terms, the result for `COc1cccc(C2(O)CCN(CC(O)c3ccc4c(c3)CCC(=O)N4)CC2)c1` (stereo not drawn) (as salt: hydrochloride) [Example 2, 6-{1-Hydroxy-2-[4-hydroxy-4-(3-methoxyphenyl)-1-piperidinyl]ethyl}-3,4-dihydroquinolin-2(1H)-one Hydrochloride] reads 246.9 °C.
On the same count and under the same terms, the result for `Cc1cccc(C2(O)CCN(CC(O)c3ccc4c(c3)CCC(=O)N4)CC2)c1` (stereo not drawn) (as salt: mesylate) [Example 4, 6-[1-Hydroxy-2-[4-hydroxy-4-(3-methylphenyl)piperidin-1-yl]ethyl]-3,4-dihydroquinolin-2(1H)-one mesylate] reads 98 to 100 °C (dec.).
In turn, `C[C@H]([C@H](O)c1ccc2c(c1)CCC(=O)N2)N1CCC(O)(c2ccc(F)cc2)CC1` [reference compound] came in with a Ki in data set [2] of 7 nM.

Values taken from patent US6713490B2, “3,4-dihydroquinolin-2(1H)-one compounds as NR2B receptor antagonists” (Pfizer, Inc., priority 2002, dated 2004).
